Experimental data taken from US20100069476A1, “COMPOSITIONS AND METHODS FOR REDUCTION OF CUTANEOUS PHOTOAGEING” (MITSUI NORIN CO., LTD, priority 2005, published 2010).

Key:
H2O2 = experiment: Intracellular release of H2O2 in skin cells after UVB (dihydrorhodamine 123), topical treatment; type: in vivo, mice; details: for effect on UVB-induced H2O2 production in cells: EGCG about 1 mg/cm^2, ascorbic acid about 0.5 mg/cm^2, topical; for H2O2 production in skin cells, control experiments without UVB: topical treatment individually
Experimental: 2. Hydrogen peroxide production as a marker of oxidative stress.
(§1) Hydrophilic cream was used as a vehicle.
After UVB exposure, a single cell suspension from the epidermis and dermis was prepared following procedures well known in the art. H2O2 was assayed using dihydrorhodamine 123 as a fluorescent dye probe. […] Treatment with ascorbic acid and EGCG inhibited UVB-induced H2O2 production in cells.

SKH-1 hairless mice = details: for prevention of UVB-induced skin damage as measured by the bi-fold thickness test: topical at optimum dosages (AA 0.5 mg/cm^2, EGCG 1 mg/cm^2), UVB 90 mJ/cm^2 two months on alternate days
Experimental: (§3) SKH-1 hairless mice were used at an age of between 6-8 weeks. The mice were UVB exposed (90 mJ/cm^2) for two months on alternate days for the present photoageing model. At the termination of the experiment, mice were sacrificed 24 hr after the last UV exposure, skin biopsies were collected for analyzing various parameters.
Ascorbic acid and EGCG (or polyphenon E) were dissolved at various concentrations in a hydrophilic cream and were topically applied on the mouse skin 25-30 min before each exposure of UVB. […] Therefore, to evaluate the anti-photoaging effects, we used this dose in all the experiments performed.
Bi-fold skin thickness of the UV exposed skin site with or without the treatment of ascorbic acid (AA) and EGCG.
Control experiments were performed to verify skin damage due to UVB exposure at the above dosage regimen. […] In the below experiments, mice were irradiated to UVB (90 mJ/cm^2) for two months on alternate days to effect photoageing of the skin. Mice were topically treated either with AA, EGCG or a combination of AA (unless indicated otherwise at 0.5 mg EGCG/cm^2 skin area) and EGCG (unless indicated otherwise at 1 mg EGCG/cm^2 skin area) before each exposure of the UVB to determine the photoprotective effect of these agents. Hydrophilic cream was used as a vehicle. UVB alone irradiated mice (control) were topically treated with vehicle only before UVB exposure.
Therefore, and based on these findings, dosages of ascorbic acid for selected experiments were maintained at about or below 0.5 mg/cm^2.
To determine if the effect was additive or synergistic, ascorbic acid and EGCG were topically used at the above determined optimum dosages.

[1] = tested on: oxidation of proteins in the skin; experiment: UVB-induced oxidation of proteins in the skin (protein carbonyl formation, OxyBlot western blot); type: in vivo, mice; details: EGCG about 1 mg/cm^2, ascorbic acid about 0.5 mg/cm^2, topical
Experimental: as §1
FIG. 4 depicts a western blot analysis using antibodies against carbonyl-containing proteins. Protein oxidation was determined following western blot analysis by using OxyBlot Protein Oxidation Detection kit (Intergen Company, Purchase, N.Y.).

TIMP = experiment: Expression of tissue inhibitor of matrix metalloproteinase in UVB exposed skin; type: in vivo, mice; details: topical
From the text: 5. Tissue inhibitor of matrix metalloproteinase (TIMP).
(§2) Most matrix proteins provide tensile strength to the skin, and are therefore thought to be associated with photoageing and/or wrinkling of skin. […] The blots were stripped and re-probed for β-actin antibody to verify equal protein loading and equal transfer of proteins from gel to membrane.

[2] = tested on: MMP-2, MMP-3, MMP-7 and MMP-9; experiment: UVB-induced expression of matrix metalloproteinases by western blot; type: in vivo, mice; details: EGCG about 1 mg/cm^2, ascorbic acid about 0.5 mg/cm^2, topical
From the text: 4. Matrix metalloproteinases, like MMP-2, MMP-3, MMP-7 and MMP-9 which play a major role in degradation of extracellular matrix of the skin and leads to skin aging or wrinkle formation.
as §1
as §2, with “skin. We previously reported that chronic exposure of skin to UVB induces the up-regulation of several MMP, particularly, MMP-2, MMP-3, MMP-7 and MMP-9.” for “skin.”

[3] = tested on: UV-induced markers of oxidative stress; experiment: UV-induced markers of oxidative stress and skin appearance, UVB one month on alternate days; type: in vivo, mice
From the text: In another exemplary treatment, mice were exposed to UVB (90 mJ/cm^2) for a period of one month on alternate days with or without polyphenone E in the drinking water (0.2%, w/v). Remarkably, this protocol inhibited UV-induced markers of oxidative stress, however, to a lesser extent than topical treatment.

[4] = tested on: UVB-induced adverse effects in the skin; experiment: Preliminary dose-dependent efficacy against UVB-induced adverse effects in the skin; type: in vivo, mice; details: topical 1 mg EGCG/cm^2 skin area, preliminary studies
Experimental: as §3
Ascorbic acid and EGCG (or polyphenon E) were dissolved at various concentrations in a hydrophilic cream and were topically applied on the mouse skin 25-30 min before each exposure of UVB. In preliminary studies, we tested the efficacy of AA and EGCG dose-dependently against UVB-induced adverse effects in the skin.

Compound	effect on UVB-induced H2O2 production in cells (H2O2)	H2O2 production in skin cells, control experiments without UVB (H2O2)	prevention of UVB-induced skin damage as measured by the bi-fold thickness test (SKH-1 hairless mice)	inflammatory reaction of skin (SKH-1 hairless mice; topical doses substantially above 0.5 mg/cm^2 of skin)	optimum dosage (protection measured by bi-fold skin thickness) (SKH-1 hairless mice; topical, data not shown)	effect on UVB-induced oxidation of proteins [1]	expression of TIMP (TIMP)	effect on UVB-induced expression of selected MMP [2]	chemopreventive efficacy, compared ([3]; UVB 90 mJ/cm^2 one month on alternate days)	skin appearance in comparison to UV alone exposed skin sites ([3]; plus UV exposed mice)	dosage up to which photoprotection increased (bi-fold thickness test) (SKH-1 hairless mice; topical, little or no further beneficial effect at increasing dosages)	chemopreventive effects against UVB radiation [4]
O=C1O[C@H]([C@@H](O)CO)C(O)=C1O [ascorbic acid]	inhibited	did not induce H2O2 production	substantially less protection	tended to provoke an inflammatory reaction	about 0.5 mg/cm^2	inhibited UVB-induced oxidation of proteins to some degree	up-regulated	inhibited UVB-induced expression of selected MMP to at least some degree	–	–	–	–
O=C(O[C@@H]1Cc2c(O)cc(O)cc2O[C@@H]1c1cc(O)c(O)c(O)c1)c1cc(O)c(O)c(O)c1 [EGCG, epigallocatechin gallate]	inhibited	did not induce H2O2 production	substantially less protection	–	–	inhibited UVB-induced oxidation of proteins to some degree	up-regulated	inhibited UVB-induced expression of selected MMP to at least some degree	superior to polyphenone E	relatively better	about 1.0 mg/cm^2	significant chemopreventive effects
